Source: patent US5212187A, “Pyridyl alkylamine compounds which are useful against histamine H1 and H2 receptors” (Zyma SA, priority 1991, dated 1993)

Tests used:
[1] = target: T1, histamine H1 -receptors (Cavia porcellus, UniProt P31389); experiment: in vitro histamine H1-antagonism on isolated guinea pig ileum; settings: cumulative concentration/action curves (van Rossum), read-out: H1 -antagonism ileum -log KB (converted)
T1 construct: isolated guinea pig ileum (H1); from tissue; host or cells: isolated guinea pig ileum
From the text: (§1) The compounds of formula I according to the invention are distinguished by a novel overall pharmacological activity that has not been described hitherto. […] Suitable for differentiating the two types of action are, for example, in vitro tests on isolated spontaneously beating guinea pig right atrium (H2) and on isolated guinea pig ileum (H1) (Black, J. W.; Duncan, W. A. M.; Durant, G. J., Ganellin, C. R.; Parsons, M. E. (1972), "Definition and Antagonism of Histamine H2 -receptors", Nature 236, 385-390). The concentration/action curves for determining the pharmacological parameters (-log KB) are recorded using a cumulative technique according to van Rossum, J. M. (1963), "Cumulative Dose-Response Curves. II. Technique for the Making of Dose-Response Curves in Isolated Organs and the Evaluation of Drug Parameters", Arch. Int. Pharmacodyn. Ther. 143, 299-307.
(§2) (determined from isolated guinea pig ileum and atrium, […]

[2] = target: T2, histamine H2 -receptors (Cavia porcellus, UniProt P47747); experiment: in vitro histamine H2-antagonism on isolated spontaneously beating guinea pig right atrium; settings: cumulative concentration/action curves (van Rossum), read-out: H2 -antagonism atrium -log KB (converted)
T2 construct: isolated spontaneously beating guinea pig right atrium (H2); from tissue; host or cells: isolated spontaneously beating guinea pig right atrium
From the text: as §1, §2

T2 sequence (P47747 whole entry): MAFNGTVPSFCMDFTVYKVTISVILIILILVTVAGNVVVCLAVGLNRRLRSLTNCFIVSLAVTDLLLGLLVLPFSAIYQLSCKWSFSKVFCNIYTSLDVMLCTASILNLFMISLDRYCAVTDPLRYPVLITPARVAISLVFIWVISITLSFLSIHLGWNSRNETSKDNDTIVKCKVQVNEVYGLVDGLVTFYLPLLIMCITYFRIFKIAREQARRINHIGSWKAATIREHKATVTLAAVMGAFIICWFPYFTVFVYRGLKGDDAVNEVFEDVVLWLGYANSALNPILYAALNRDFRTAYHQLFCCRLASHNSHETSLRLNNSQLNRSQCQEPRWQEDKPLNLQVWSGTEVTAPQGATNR
T1 sequence (P31389 whole entry): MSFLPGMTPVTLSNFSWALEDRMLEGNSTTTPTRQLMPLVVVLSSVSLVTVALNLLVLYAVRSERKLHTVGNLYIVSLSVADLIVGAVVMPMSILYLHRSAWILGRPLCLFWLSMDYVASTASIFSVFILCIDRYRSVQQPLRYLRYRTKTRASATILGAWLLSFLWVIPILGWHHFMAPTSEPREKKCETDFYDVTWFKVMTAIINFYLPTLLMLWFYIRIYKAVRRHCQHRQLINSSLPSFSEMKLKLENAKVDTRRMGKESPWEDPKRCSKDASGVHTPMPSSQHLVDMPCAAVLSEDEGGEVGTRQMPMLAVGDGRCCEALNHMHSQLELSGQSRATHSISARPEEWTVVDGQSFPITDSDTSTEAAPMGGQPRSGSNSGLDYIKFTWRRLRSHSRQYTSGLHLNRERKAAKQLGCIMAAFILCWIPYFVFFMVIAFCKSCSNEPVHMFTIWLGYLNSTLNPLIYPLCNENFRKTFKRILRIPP

Kb [1] [nM] | Kb [2] [nM] | SMILES
12.3 | 123 | COc1ccc(CN(CCN(C)CCCCCCNC(=C[N+](=O)[O-])NCCCOc2cccc(CN3CCCCC3)c2)c2ccccn2)cc1 [Example 75, N-[6-[N-[2-[N-(4-methoxybenzyl)-N-(2-pyridyl)amino]ethyl]-N-methylamino]hexyl]-N'-[3-[3-(piperidinomethyl)phenoxy]propyl]-2-nitro-1,1-ethenediamine]
10.7 | 1350 | CN(C)Cc1ccc(CSCCNC(=C[N+](=O)[O-])NCCCN(C)CCN(Cc2ccc(F)cc2)c2ccccn2)o1 [Example 104, N-[2-[[5-[(dimethylamino)methyl]furfuryl]thio]ethyl]-N'-[3-[N-[2-[N-(4-fluorobenzyl)-N-(2-pyridyl)amino]ethyl]-N-methylamino]propyl]-2-nitro-1,1-ethenediamine]
17.8 | 44.7 | CN(CCCCCCCNC(=O)NCCCOc1cccc(CN2CCCCC2)c1)CCN(Cc1ccc(F)cc1)c1ccccn1 [Example 72, N-[7-[N-[2-[N-(4-fluorobenzyl)-N-(2-pyridyl)amino]ethyl]-N-methylamino]heptyl]-N'-[3-[3-(piperidinomethyl)phenoxy]propyl]urea]
1.74 | 174 | COc1ccc(CN(CCN(C)CCCCCCNC(=O)NCCSCc2csc(NC(=N)N)n2)c2ccccn2)cc1 [Example 89, N-[2-[[(2-guanidino-4-thiazolyl)methyl]thio]ethyl]-N'-[6-[N-[2-[N-(4-methoxybenzyl)-N-(2-pyridyl)amino]ethyl]-N-methylamino]hexyl]urea]
36.3 | 28.8 | CC(C1=C(CCN(C)CCCCCCNC(=C[N+](=O)[O-])NCCSCc2csc(N=C(N)N)n2)Cc2ccccc21)c1ccccn1 (centres unmarked) [Example 105, N-[2-[[(2-guanidino-4-thiazolyl)methyl]thio]ethyl]-N'-[6-[N-methyl-N-[2-[1-(2-pyridyl)ethyl]inden-2-yl]ethylamino]hexyl]-2-nitro-1,1-ethenediamine]
3.63 | 302 | CN(CCCCCCNC(=NC#N)NCCSCc1csc(N=C(N)N)n1)CCN(Cc1ccc(F)cc1)c1ccccn1 [Example 84]
2.45 | 245 | COc1ccc(CN(CCN(C)CCCCCCN=C(NC#N)NCCSCc2csc(NC(=N)N)n2)c2ccccn2)cc1 [Example 79, N-cyano-N'-[2-[[(2-guanidino-4-thiazolyl)methyl]thio]ethyl]-N"-[6-[N-[2-[N-(4-methoxybenzyl)-N-(2-pyridyl)amino]ethyl]-N-methylamino]hexyl]-guanidine]
24.5 | 1200 | CN(C)Cc1ccc(CSCCNC(=O)NCCCCN(C)CCN(Cc2ccc(F)cc2)c2ccccn2)o1 [Example 103, N-[2-[[5-[(dimethylamino)methyl]furfuryl]thio]ethyl]-N'-[4-[N-[2-[N-(4-fluorobenzyl)-N-(2-pyridyl)amino]ethyl]-N-methylamino]butyl]urea]
7.08 | 95.5 | CN(CCCCCCCNC(=NCCSCc1csc(NC(=N)N)n1)NC#N)CCN(Cc1ccc(F)cc1)c1ccccn1 [Example 85, N-cyano-N'-[7-[N-[2-[N-(4-fluorobenzyl)-N-(2-pyridyl)amino]ethyl]-N-methylamino]heptyl]-N"-[2-[[(2-guanidino-4-thiazolyl)methyl]thio]ethyl]guanidine]
1.82 | 219 | COc1ccc(CN(CCN(C)CCCCNC(=O)NCCSCc2csc(NC(=N)N)n2)c2ccccn2)cc1 [Example 88, N-[2-[[(2-guanidino-4-thiazolyl)methyl]thio]ethyl]-N'-[4-[N-[2-[N-(4-methoxybenzyl)-N-(2-pyridyl)amino]ethyl]-N-methylamino]butyl]urea]

Continued, compound first:

SMILES | Kb [1] [nM] | Kb [2] [nM]
CN(CCCCNC(=NCCSCc1csc(NC(=N)N)n1)NC#N)CCC(c1ccc(Cl)cc1)c1ccccn1 (centres unmarked) [Example 17, N-[4-[N-[3-(4-chlorophenyl)-3-(2-pyridyl)propyl]-N-methylamino]butyl]-N'-cyano-N"-[2-[[(2-guanidino-4-thiazolyl)methyl]thio]ethyl]guanidine] | 5.01 | 166
CN(CCCCNC(=NCCCOc1cccc(CN2CCCCC2)c1)NC#N)CCC(c1ccccc1)c1ccccn1 (centres unmarked) [Example 9, N-cyano-N'-[4-[N-[3-phenyl-3-(2-pyridyl)propyl]-N-methylamino]butyl]-N"-[3-[3-(piperidinomethyl)phenoxy]propyl]guanidine] | 11.7 | 501
CN(CCCCCCNC(=O)NCCSCc1csc(NC(=N)N)n1)CCC(c1ccc(Cl)cc1)c1ccccn1 (centres unmarked) [Example 37, N-[6-[N-[3-(4-chlorophenyl)-3-(2-pyridyl)propyl]-N-methylamino]hexyl]-N'-[2-[[(2-guanidino-4-thiazolyl)methyl]thio]ethyl]urea] | 7.41 | 123
Cc1[nH]cnc1CSCCNC(=O)NCCCN(C)CCC(c1ccc(Cl)cc1)c1ccccn1 (centres unmarked) [Example 50, N-[3-[N-[3-(4-chlorophenyl)-3-(2-pyridyl)propyl]-N-methylamino]propyl]-N'-[2-[[(5-methylimidazol-4-yl)methyl]thio]ethyl]urea] | 7.08 | 6460
CN(CCCCCCCCNC(=O)NCCSCc1csc(NC(=N)N)n1)CCC(c1ccc(Cl)cc1)c1ccccn1 (centres unmarked) [Example 35, N-[8-[N-[3-(4-chlorophenyl)-3-(2-pyridyl)propyl]-N-methylamino]octyl]-N'-[2-[[(2-guanidino-4-thiazolyl)methyl]thio]ethyl]urea] | 13.8 | 39.8
CN(CCCCCNC(=NCCSCc1csc(NC(=N)N)n1)NC#N)CCC(c1ccc(Cl)cc1)c1ccccn1 (centres unmarked) [Example 18, N-[5-[N-[3-(4-chlorophenyl)-3-(2-pyridyl)propyl]-N-methylamino]pentyl]-N'-cyano-N"-[2-[[(2-guanidino-4-thiazolyl)methyl]thio]ethyl]guanidine] | 3.72 | 126
CN(CCCCCNC(=O)NCCCOc1cccc(CN2CCCCC2)c1)CCN(Cc1ccc(F)cc1)c1ccccn1 [Example 70, N-[5-[N-[2-[N-(4-fluorobenzyl)-N-(2-pyridyl)amino]ethyl]-N-methylamino]-pentyl]-N'-[3-[3-(piperidinomethyl)phenoxy]propyl]urea] | 9.55 | 135
CN(CCCCCCCNC(=NCCSCc1csc(NC(=N)N)n1)NC#N)CCC(c1ccc(Cl)cc1)c1ccccn1 (centres unmarked) [Example 20, N-[7-[N-[3-(4-chlorophenyl)-3-(2-pyridyl)propyl]-N-methylamino]heptyl]-N'-cyano-N"-[2-[[(2-guanidino-4-thiazolyl)methyl]thio]ethyl]guanidine] | 4.17 | 30.9
CN(CCCCCCCNC(=O)NCCSCc1csc(NC(=N)N)n1)CCC(c1ccc(Cl)cc1)c1ccccn1 (centres unmarked) [Example 36, N-[7-[N-[3-(4-chlorophenyl)-3-(2-pyridyl)propyl]-N-methylamino]heptyl]-N'-[2-[[(2-guanidino-4-thiazolyl)methyl]thio]ethyl]urea] | 5.37 | 26.9
CN(CCNC(=NCCCCOc1cccc(CN2CCCCC2)c1)NC#N)CCC(c1ccc(Cl)cc1)c1ccccn1 (centres unmarked) [Example 1, N-[2-[N-[3-(4-chlorophenyl)-3-(2-pyridyl)propyl]-N-methylamino]ethyl]-N'-cyano-N"-[4-[3-(piperidinomethyl)phenoxy]butyl]guanidine] | 63.1 | 2290
CN(CCCCCCCNC(=S)NCCSCc1csc(NC(=N)N)n1)CCC(c1ccc(Cl)cc1)c1ccccn1 (centres unmarked) [Example 48, N-[7-[N-[3-(4-chlorophenyl)-3-(2-pyridyl)propyl]-N-methylamino]heptyl]-N'-[2-[[(2-guanidino-4-thiazolyl)methyl]thio]ethyl]thiourea] | 20 | 60.3
CN(CCCCCCNC(=NCCCOc1cccc(CN2CCCCC2)c1)NC#N)CCN(Cc1ccc(F)cc1)c1ccccn1 [Example 60, N-cyano-N'-[6-[N-[2-[N-(4-fluorobenzyl)-N-(2-pyridyl)amino]ethyl]-N-methylamino]hexyl]-N"-[3-[3-(piperidinomethyl)phenoxy]propyl]guanidine] | 8.71 | 389
CN(CCCNC(=O)NCCCOc1cccc(CN2CCCCC2)c1)CCC(c1ccc(F)cc1)c1ccccn1 (centres unmarked) [Example 30, N-[3-[N-[3-(4-fluorophenyl)-3-(2-pyridyl)propyl]-N-methylamino]propyl]-N'-[3-[3-(piperidinomethyl)phenoxy]propyl]urea] | 6.17 | 209
CN(CCCNC(=NCCCOc1cccc(CN2CCCCC2)c1)NC#N)CCC(c1ccccc1)c1ccccn1 (centres unmarked) [Example 10, N-cyano-N'-[3-[N-[3-phenyl-3-(2-pyridyl)propyl]-N-methylamino]propyl]-N"-[3-[3-(piperidinomethyl)phenoxy]propyl]guanidine] | 6.46 | 1480
COc1ccc(CN(CCN(C)CCCCCCNC(=O)NCCCOc2cccc(CN3CCCCC3)c2)c2ccccn2)cc1 [Example 66, N-[6-[N-[2-[N-(4-methoxybenzyl)-N-(2-pyridyl)amino]ethyl]-N-methylamino]hexyl]-N'-[3-[3-(piperidinomethyl)phenoxy]propyl]urea] | 11.2 | 182
